Data published in patent publication US11136324B2, “Substituted imidazoles as apoptosis signal regulating kinase 1 inhibitors” (Jiangsu Hansoh Pharmaceutical Group Co., Ltd., priority 2017, dated 2021).

How the values were obtained:
[1] = Pharmacokinetic (PK) assay in mice; format: in vivo; details: Balb/c male mice, single intragastric administration, 5 mg/kg, plasma; for AUC(0-t) / AUC(0-inf) / half-life / MRT / Cmax: mouse, po; for AUC(0-t): read-out: Area under curve AUC0-t; for AUC(0-inf): read-out: Area under curve AUC0-∞; for half-life: read-out: Half-life t1/2 (converted); for MRT: read-out: Mean residence time MRT; for Cmax: read-out: Plasma concentration Cmax
Procedure: 2. Pharmacokinetic (PK) Assay in Mice
The pharmacokinetic test of the preferred examples of the present invention in mice was carried out in Balb/c male mice (Shanghai Jiesijie Laboratory Animal Co., LTD).
Administration mode: single intragastric administration.
Administration dosage: 5 mg/10 ml/kg.
Formulation: 0.5% CMC-Na, ultrasonic dissolution.
Sampling points: 0.5, 1, 2, 4, 6, 8 and 24 hours after administration.
1) 0.1 mL of blood was taken from the orbit, placed in a K2EDTA tube, and centrifuged for 5˜20 min at room temperature at 1000˜3000×g to separate the plasma, which was then stored at −80° C.
2) 160 μL of acetonitrile was added to 40 μL of plasma sample for precipitation, and then the mixture was centrifuged for 5˜20 minutes at 500˜2000×g.
3) 100 μL, of processed supernatant was taken and analyzed by LC/MS/MS assay to determine the concentration of the test compound.
LC-MS/MS Assay: • Liquid chromatography condition: Shimadzu LC-20AD pump • Mass spectrometry condition: AB Sciex API 4000 mass spectrometer • Chromatographic column: phenomenex Gemiu 5 μm C18 50×4.6 mm • Mobile phase: solution A was 0.1% aqueous formic acid solution, and solution B was acetonitrile • Flow rate: 0.8 mL/min • Elution time: 0-3.5 minutes gradient elution
The main parameters were calculated using WinNonlin 6.1.

ASK1 kinase = ASK1 kinase (Homo sapiens (Human), UniProt Q99683); assay: ASK1 enzymatic test (TR-FRET); format: biochemical; details: ASK1 kinase activity
ASK1 kinase, sequence (Q99683 whole entry): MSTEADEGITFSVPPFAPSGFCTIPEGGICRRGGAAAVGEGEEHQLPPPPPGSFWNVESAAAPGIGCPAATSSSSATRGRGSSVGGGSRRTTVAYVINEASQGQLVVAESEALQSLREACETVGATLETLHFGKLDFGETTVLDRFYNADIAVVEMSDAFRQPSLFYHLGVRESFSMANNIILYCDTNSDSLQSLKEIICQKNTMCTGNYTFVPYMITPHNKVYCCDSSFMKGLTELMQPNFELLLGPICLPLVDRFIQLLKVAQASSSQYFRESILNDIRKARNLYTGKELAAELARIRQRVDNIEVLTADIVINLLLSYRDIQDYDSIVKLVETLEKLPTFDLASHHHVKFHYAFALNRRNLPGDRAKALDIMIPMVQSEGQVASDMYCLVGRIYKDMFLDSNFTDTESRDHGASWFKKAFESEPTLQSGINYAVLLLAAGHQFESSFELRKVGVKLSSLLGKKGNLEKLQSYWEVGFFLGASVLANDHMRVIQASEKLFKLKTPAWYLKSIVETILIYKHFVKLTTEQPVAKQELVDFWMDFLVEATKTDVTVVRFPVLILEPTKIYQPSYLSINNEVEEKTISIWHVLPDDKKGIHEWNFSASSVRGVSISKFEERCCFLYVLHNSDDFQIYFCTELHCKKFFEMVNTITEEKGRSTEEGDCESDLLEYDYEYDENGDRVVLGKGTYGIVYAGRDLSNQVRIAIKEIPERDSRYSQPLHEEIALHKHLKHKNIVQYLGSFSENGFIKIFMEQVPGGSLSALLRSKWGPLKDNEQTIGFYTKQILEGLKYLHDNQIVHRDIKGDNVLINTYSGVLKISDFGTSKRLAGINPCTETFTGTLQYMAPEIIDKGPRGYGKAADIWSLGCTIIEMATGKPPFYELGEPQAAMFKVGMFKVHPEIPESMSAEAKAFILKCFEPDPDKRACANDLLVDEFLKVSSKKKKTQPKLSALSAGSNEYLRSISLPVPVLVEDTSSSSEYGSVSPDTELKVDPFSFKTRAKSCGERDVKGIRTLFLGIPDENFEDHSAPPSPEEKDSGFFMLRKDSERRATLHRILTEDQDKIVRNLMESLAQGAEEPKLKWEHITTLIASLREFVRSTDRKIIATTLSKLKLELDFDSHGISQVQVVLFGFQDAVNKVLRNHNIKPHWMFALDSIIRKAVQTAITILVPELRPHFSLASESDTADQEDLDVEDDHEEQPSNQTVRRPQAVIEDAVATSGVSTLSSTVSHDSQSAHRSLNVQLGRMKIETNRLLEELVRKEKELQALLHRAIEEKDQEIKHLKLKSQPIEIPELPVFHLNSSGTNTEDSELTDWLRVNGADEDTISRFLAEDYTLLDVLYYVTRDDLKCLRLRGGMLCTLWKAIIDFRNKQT
Procedure: In this test, the fluorescence-resonance energy transfer (TR-FRET) method was used to determine the inhibition effect of the test compounds on ASK1 kinase activity, and the half maximal inhibitory concentration IC50 of the compounds on ASK1 kinase activity was obtained.
1) 1˜5 μL of ASK1 enzyme solution was added to a 384-well plate, and the final concentration of the enzyme was 0.220 nM.
2) 1˜5 μL of gradient-diluted compound solution was added.
3) 1˜5 μL of a substrate mixture containing substrate polypeptides (final concentration: 100˜5000 nM) and ATP (final concentration: 100˜1000 uM) were added.
4) The mixture was incubated at room temperature for 0.5 to 5 hours.
5) 10 μL of EDTA and test solution containing labeled antibody were added, and the plate was incubated at room temperature for 2 to 24 hours.
6) The fluorescence signal value of each well was determined by a microplate reader at about 615 nm and 665 nm.
7) The inhibition rate was calculated by the fluorescence signal value.
8) The IC50 of the compound was obtained by curve fitting according to the inhibition rate at different concentrations.

Compound | Peak time tmax [1] [h] | AUC(0-t) [1] [µg·h/mL] | AUC(0-inf) [1] [µg·h/mL] | half-life [1] [h] | MRT [1] [h] | Cmax [1] [µg/mL] | IC50 (ASK1 kinase) [nM]
Cc1cc(F)c(C(=O)Nc2cccc(-c3nnc4n3C[C@@H](C)C4)n2)cc1-n1cnc(C2CC2)c1 [Example 35, (S)-5-(4-Cyclopropyl-1H-imidazol-1-yl)-2-fluoro-4-methyl-N-(6-(6-methyl-6,7-di hydro-5H-pyrrolo[2,1-c][1,2,4]triazol-3-yl)pyridin-2-yl)benzamide] | 1 | 107 | 108 | 3.7 | 5 | 13.5 | 
Cc1cc(F)c(C(=O)Nc2cccc(-c3nnc4n3CC(C)(C)C4)n2)cc1-n1cnc(C2CC2)c1 [Example 32, 5-(4-Cyclopropyl-1H-imidazol-1-yl)-N-(6-(6,6-dimethyl-6,7-dihydro-5H-pyrrolo[2,1-c][1,2,4]triazol-3-yl)pyridin-2-yl)-2-fluoro-4-methylbenzamide] | 1 | 46.4 | 46.4 | 2.6 | 3.9 | 10.9 | 4.9
Cc1cc(F)c(C(=O)Nc2cccc(-c3nnc4n3[C@H](C)CC4)n2)cc1-n1cnc(C2CC2)c1 [Example 8, (R)-5-(4-Cyclopropyl-1H-imidazol-1-yl)-2-fluoro-4-methyl-N-(6-(5-methyl-6,7-dihydro-5H-pyrrolo[2,1-c][1,2,4]triazol-3-yl)pyridin-2-yl)benzamide] | 1 | 29.7 | 29.8 | 2.7 | 4.6 | 4.81 | 1.8
C#CC1CCc2nnc(-c3cccc(NC(=O)c4cc(-n5cnc(C6CC6)c5)c(C)cc4F)n3)n21 (stereo not shown) [Example 44, 5-(4-Cyclopropyl-1H-imidazol-1-yl)-N-(6-(5-ethynyl-6,7-dihydro-5H-pyrrolo[2,1-c][1,2,4]triazol-3-yl)pyridin-2-yl)-2-fluoro-4-methylbenzamide] |  |  |  |  |  |  | 3.6
O=C(Nc1cccc(-c2nnc3n2CCC3)c1)c1cc(-n2cnc(C3CC3)c2)ccn1 [Example 7, 4-(4-Cyclopropyl-1H-imidazol-1-yl)-N-(3-(6,7-dihydro-5H-pyrrolo[2,1-c][1,2,4]triazol-3-yl)phenyl)picolinamide] |  |  |  |  |  |  | 19.6
Cc1cc(F)c(C(=O)Nc2cccc(-c3nnc4n3CCCCC4)n2)cc1-n1cnc(C2CC2)c1 [Example 2, 5-(4-Cyclopropyl-1H-imidazol-1-yl)-2-fluoro-4-methy 1-N-(6-(6,7,8,9-tetrahydro-5H-[1,2,4]triazolo[4,3-a]azepin-3-yl)pyridin-2-yl)benzamide] |  |  |  |  |  |  | 9.3
Cc1cc(F)c(C(=O)Nc2cccc(-c3nnc4n3CC3(CC3)C4)n2)cc1-n1cnc(C2CC2)c1 [Example 31, N-(6-(5′H,7′H-Spiro[cyclopropane-1,6′-pyrrolo[2,1-c][1,2,4]triazol]-3′-yl)pyridin-2-yl)-5-(4-cyclopropyl-1H-imidazol-1-yl)-2-fluoro-4-methylbenzamide] |  |  |  |  |  |  | 10.9
C=CC1CCc2nnc(-c3cccc(NC(=O)c4cc(-n5cnc(C6CC6)c5)c(C)cc4F)n3)n21 (stereo not shown) [Example 38, 5-(4-Cyclopropyl-1H-imidazol-1-yl)-2-fluoro-4-methyl-N-(6-(5-vinyl-6,7-dihydro-5H-pyrrolo[2,1-c][1,2,4]triazol-3-yl)pyridin-2-yl)benzamide] | 0.5 | 129 | 130 | 2.8 | 5.1 | 19.4 | 4.1
Cc1cc(F)c(C(=O)Nc2cccc(-c3nnc4n3[C@H](CO)CC4)n2)cc1-n1cnc(C2CC2)c1 [Example 50, (S)-5-(4-Cyclopropyl-1H-imidazol-1-yl)-2-fluoro-N-(6-(5-(hydroxymethyl)-6,7-dihydro-5H-pyrrolo[2,1-c][1,2,4]triazol-3-yl)pyridin-2-yl)-4-methylbenzamide] |  |  |  |  |  |  | 9.6
Cc1cc(F)c(C(=O)Nc2cccc(-c3nnc4n3CCCC4)n2)cc1-n1cnc(C2CC2)c1 [Example 3, 5-(4-Cyclopropyl-1H-imidazol-1-yl)-2-fluoro-4-methyl-N-(6-(5,6,7,8-tetrahydro-[1,2,4]triazolo[4,3-a]pyridin-3-yl)pyridin-2-yl)benzamide] |  |  |  |  |  |  | 13.4
Cc1cc2c(cc1-n1cnc(C3CC3)c1)C(=O)N(c1cccc(-c3nnc4n3CCC4)n1)C2 [Example 63, 6-(4-Cyclopropyl-1H-imidazol-1-yl)-2-(6-(6,7-dihydro-5H-pyrrolo[2,1-c][1,2,4]triazol-3-yl)pyridin-2-yl)-5-methylisoindolin-1-one] |  |  |  |  |  |  | 8.4
Cc1cc(F)c(C(=O)Nc2cccc(-c3nnc4n3C3(CC4)CC3)n2)cc1-n1cnc(C(C)C)c1 [Example 62, N-(6-(6′,7′-Dihydrospiro[cyclopropane-1,5′-pyrrolo[2,1-c][1,2,4]triazol]-3′-yl)pyridin-2-yl)-2-fluoro-5-(4-isopropyl-1H-imidazol-1-yl)-4-methylbenzamide] |  |  |  |  |  |  | 3
CO[C@H](C)[C@H]1CCc2nnc(-c3cccc(NC(=O)c4cc(-n5cnc(C6CC6)c5)c(C)cc4F)n3)n21 [Example 36, 5-(4-Cyclopropyl-1H-imidazol-1-yl)-2-fluoro-N-(6-((R)-5-((R)-1-methoxyethyl)-6,7-di hydro-5H-pyrrolo[2,1-c][1,2,4]triazol-3-yl)pyridin-2-yl)-4-methylbenzamide] |  |  |  |  |  |  | 9.1
Cc1cc(Cl)c(C(=O)Nc2cccc(-c3nnc4n3[C@H](C)CC4)n2)cc1-n1cnc(C2CC2)c1 [Example 53, (R)-2-Chloro-5-(4-cyclopropyl-1H-imidazol-1-yl)-4-methyl-N-(6-(5-methyl-6,7-dihydro-5H-pyrrolo[2,1-c][1,2,4]triazol-3-yl)pyridin-2-yl)benzamide] |  |  |  |  |  |  | 8.2
Cc1cc(F)c(C(=O)Nc2cccc(-c3nnc4n3CC(C3CC3)C4)n2)cc1-n1cnc(C2CC2)c1 (stereo not shown) [Example 30, 5-(4-Cyclopropyl-1H-imidazol-1-yl)-N-(6-(6-cyclopropyl-6,7-dihydro-5H-pyrrolo[2,1-c][1,2,4]triazol-3-yl)pyridin-2-yl)-2-fluoro-4-methylbenzamide] |  |  |  |  |  |  | 11.4
Cc1cc(F)c(C(=O)Nc2cccc(-c3nnc4n3[C@H](CC#N)CC4)n2)cc1-n1cnc(C2CC2)c1 [Example 48, (S)—N-(6-(5-(Cyanomethyl)-6,7-dihydro-5H-pyrrolo[2,1-c][1,2,4]triazol-3-yl)pyridin-2-yl)-5-(4-cyclopropyl-1H-imidazol-1-yl)-2-fluoro-4-methylbenzamide] |  |  |  |  |  |  | 6.1
Cc1cc(F)c(C(=O)Nc2cccc(-c3nnc4n3[C@@H](CF)CC4)n2)cc1-n1cnc(C2CC2)c1 [Example 52, (R)-5-(4-Cyclopropyl-1H-imidazol-1-yl)-2-fluoro-N-(6-(5-(fluoromethyl)-6,7-dihydro-5H-pyrrolo[2,1-c][1,2,4]triazol-3-yl)pyridin-2-yl)-4-methylbenzamide] | 0.5 | 70.5 | 70.6 | 3 | 4.7 | 9.97 | 
Cc1cc(F)c(C(=O)Nc2cccc(-c3nnc4n3CCOC4)n2)cc1-n1cnc(C2CC2)c1 [Example 4, 5-(4-Cyclopropyl-1H-imidazol-1-yl)-N-(6-(5,6-dihydro-8H-[1,2,4]triazolo[3,4-c][1,4]oxazin-3-yl)pyridin-2-yl)-2-fluoro-4-methylbenzamide] |  |  |  |  |  |  | 47.8
